In US20040019026A1, “Compounds useful for treating hypertriglyceridemia” (priority 2000, published 2004):
Values joined by “and” are separate entries in the source; they are usually repeats but may differ in a detail not shown here. Equal entries are not always repeated.

What was measured:
[1] = test system: hypertriglyceridemic patients; assay: Hypertriglyceridemic patients with high or low HDL, 1200 mg daily: plasma triglycerides (Example 2); type: in vivo, human; conditions: for Triglyceride levels: 4 patients with low HDL levels
Method: Five hypertriglyceridemic patients had high baseline HDL levels (>50 mg/dL, 64.2±8.5, n=10, mean±S.D.) and four hypertriglyceridemic patients had low HDL levels 40.4±4.1, n=8). They were treated as before, as described in Example 1, except they received 1200 mg of 16α-fluoro-5-androsten-17-one daily. Controls were set up so that they received 1200 mg of placebo. The triglyceride concentration in the plasma were measured pretreatment and at the end of the study.
In those patients with high HDL levels, the triglycerides fell from 330±163 (n=10) to 214±56.1 (n=5). However, in 4 patients with low HDL levels (40.0±4.1), treatment with 1200 mg of 16α-fluoro-5-androsten-17-one daily for 3 to 12 weeks lowered triglyceride levels from 245±55.1 (n=8) to 139±10.6 (n=4), p<0.01.

[2] = test system: male BKS.Cg-m+/+Leprdb mice; assay: Buccal administration to diabetic mice: fasting plasma triglycerides (Example 3); type: in vivo
From the text: The following example, tested the effects of buccal administration of 16α-fluoro-5-andorsten-17-one (hereinafter “drug”).
Eight-week-old male BKS.Cg-m^+/+Lepr^db mice were obtained from Jackson Laboratories. The mice were initially housed five per cage on Alphacel bedding with ad libitum access to Purina 5015 chow and acidified water. The mice wee housed in the Central Animal Facility (6th Floor, Pharmacy building) with twelve hours of alternating light and darkness.
Five days later, the chow was removed from the mice at approximately 3:30 p.m. This was done so that a fasting plasma glucose level could be obtained on the next day. The next day, a pretreatment plasma glucose determination was made. The mice were lightly anesthetized with Isoflurane and were bled form the orbital sinus (˜400 μL of blood was taken). The blood was obtained between 10:00 a.m. and noon. Blood was kept on ice until analysis. After the blood for the glucose measurement was taken out, the remaining blood was centrifuged at 3000×g for 15 minutes. The plasma was removed and frozen for use in determining plasma triglyceride levels.
Plasma triglyceride levels were determined with a Sigma kit (334-UV). The determination is based on the enzymatic hydrolysis of triglycerides to glycerol and free fatty acids by lipase. Glycerol was subsequently phosphorylated by ATP to produce glycerol-I-phosphate and ADP. ATP was regenerated by a pyruvate kinase-catalyzed reaction between ADP […] with simultaneous oxidation of equimolar amounts of NADH in the presence of lactate dehydrogenase. NADH absorbs at 340 nm, thus the decrease in absorbance, measured at this wavelength, is directly proportional to the triglyceride concentration in this sample.
Triglyceride Reagent A (containing ATP, lactate dehydrogenase, lipase, NADH, phosphoenol pyruvate, pyruvate kinase) and Triglyceride Reagent B were reconstituted with 10 mL and 2 mL of distilled water respectively. The Sample Reagent was prepared by adding 0.25 mL of Triglyceride reagent B to 10 mL to Triglyceride Reagent A. Blank, standard (50, 100 and 200 mg/dL) and sample tubes were prepared. One mL of Sample Reagent was added to all tubes. To the Blank tube, 20 μL of distilled water was added. For each Sample tube, 20 μL of plasma was added to the tube. All tubes were incubated at room temperature for 10 minutes. The tubes were read against a Reference containing distilled water. Triglyceride concentration in the samples were calculated by subtracting the absorbance of the Sample form the absorbance of the Blank and using the following formula: […]
One week after obtaining the mice, the mice were distributed into either groups of 6 mice (Control, buccal and 5 mg/kg drug buccal), or 7 mice (10 mg/kg drug buccal). The mice were weighed.
The buccally administered groups were treated with a suspension of drug, 16α-5-androsten-17-one obtained from Eminent Services Corp. The suspension consisted of 100 mg/mL of micronized fluasterone (16α-fluoro-5-androsten-17-one) in 0.9% saline plus 2% Tween 80 and 0.4% carboxymethyl cellulose. The mice were lightly anesthetized with isoflurane and then injected i.m. with 0.05 mL of a solution of ketamine (50 mg/kg), xylazine (10 mg.kg) and atropine (0.1 mg/kg) injected near tail). Approximately 10 minutes post injection, while the animals were anesthetized, the mice were placed on their backs and were treated with one-half of the dose of drug necessary in each buccal area. The mice remained anesthetized and on their backs for approximately 30 minutes post-treatment. The 5 mg/kg drug group was treated with 2.04 μL of suspension (1.02 μL per buccal area) and the 10 mg/kg drug group was treated with 4.2 μL(2.1 μL per buccal area) while the Control Buccal group received 4.2 μL (2.1 μL per buccal area) for the duration of the experiment. The cages of the mice were placed on heating pads on a low temperature to prevent loss of animals due to hypothermia during anesthesia. […]

[3] = test system: male BKS.Cg-m+/+Leprdb mice; assay: Fasting plasma glucose levels in diabetic mice (Example 9); type: in vivo

C[C@]12CCCCC1=CC[C@@H]1[C@@H]2CC[C@]2(C)C(=O)[C@H](F)C[C@@H]12 [fluasterone, 16α-fluoro-5-androsten-17-one]
Triglyceride levels ([1]; after 1200 mg daily for 3 to 12 weeks, p<0.01): 139±10.6
Triglyceride levels ([1]; pretreatment): 245±55.1
Triglycerides ([1]; patients with high HDL levels (>50 mg/dL), pretreatment): 330±163
Triglycerides ([1]; patients with high HDL levels, after 1200 mg daily): 214±56.1
Plasma triglycerides ([2]; 5 mg/kg buccal group, pre-treatment, group mean): 138.4 ± 44.6 mg/dL
Plasma triglycerides ([2]; 5 mg/kg buccal group, pre-treatment, individual mice, listed as drug): 116.8 mg/dL and 222.8 mg/dL and 120.6 mg/dL and 110.7 mg/dL and 153.8 mg/dL and 105.9 mg/dL
Plasma triglycerides ([2]; 5 mg/kg buccal, after 6 days of treatment, group mean, p < 0.01 vs. control buccal): 110.6 ± 28.0 mg/dL
Plasma triglycerides ([2]; 5 mg/kg buccal, after 6 days of treatment, individual mice, listed as drug): 77.2 mg/dL and 106.0 mg/dL and 87.3 mg/dL and 414.0 mg/dL and 146.6 mg/dL and 105.4 mg/dL
Plasma triglycerides ([2]; 5 mg/kg buccal, after 13 days of treatment, group mean, p < 0.0005 vs. Control buccal): 82.0 ± 12.3 mg/dL
Plasma triglycerides ([2]; 5 mg/kg buccal, after 13 days of treatment, individual mice, listed as drug): 97.8 mg/dL and 89.3 mg/dL and 65.3 mg/dL and 79.1 mg/dL and 78.3 mg/dL
Plasma triglycerides ([2]; 10 mg/kg buccal group, pre-treatment, group mean): 118.7 ± 38.1 mg/dL
Plasma triglycerides ([2]; 10 mg/kg buccal group, pre-treatment, individual mice, listed as drug): 97.1 mg/dl and 102.1 mg/dl (2×) and 89.4 mg/dl and 184.4 mg/dl and 93.7 mg/dl and 162.1 mg/dl
Plasma triglycerides ([2]; 10 mg/kg buccal, after 6 days of treatment, group mean, p < 0.01 vs. Control buccal): 96.5 ± 32.4 mg/dL
Plasma triglycerides ([2]; 10 mg/kg buccal, after 6 days of treatment, individual mice, listed as drug): 108.7 mg/dL and 83.5 mg/dL and 96.8 mg/dL and 61.2 mg/dL and 104.6 mg/dL and 64.3 mg/dL and 156.7 mg/dL
Plasma triglycerides ([2]; 10 mg/kg buccal, after 13 days of treatment, group mean, P < 0.001 vs. Control buccal): 104.0 ± 16.6 mg/dL
Plasma triglycerides ([2]; 10 mg/kg buccal, after 13 days of treatment, individual mice, listed as drug): 102.0 mg/dL and 83.5 mg/dL and 93.6 mg/dL and 133.5 mg/dL and 118.1 mg/dL and 97.8 mg/dL and 99.2 mg/dL
Fasting Plasma Glucose Levels ([3]; 5 mg/kg i.p., treatment day 0): 270 ± 81.9 mg/dL
Fasting Plasma Glucose Levels ([3]; 5 mg/kg i.p., treatment day 7): 434 ± 264 mg/dL
Fasting Plasma Glucose Levels ([3]; 5 mg/kg i.p., treatment day 14): 410 ± 32.1 mg/dL
Fasting Plasma Glucose Levels ([3]; 5 mg/kg i.p., treatment day 17, greater than s.c. Control, p < 0.01): 635 ± 77.3^3 mg/dL
Fasting Plasma Glucose Levels ([3]; 5 mg/kg s.c., treatment day 0): 245 ± 102 mg/dL
Fasting Plasma Glucose Levels ([3]; 5 mg/kg s.c., treatment day 7): 173 ± 58.3 mg/dL
Fasting Plasma Glucose Levels ([3]; 5 mg/kg s.c., treatment day 14, less than s.c. Control, p < 0.001): 134 ± 29.8^1 mg/dL
Fasting Plasma Glucose Levels ([3]; 5 mg/kg s.c., treatment day 17, less than s.c. Control, p < 0.001): 96.0 ± 18.5^1 mg/dL
Fasting Plasma Glucose Levels ([3]; 200 mg/kg oral, treatment day 0): 245 ± 72.1 mg/dL
Fasting Plasma Glucose Levels ([3]; 200 mg/kg oral, treatment day 7): 181 ± 69.3 mg/dL
Fasting Plasma Glucose Levels ([3]; 200 mg/kg oral, treatment day 14, less than oral Control, p < 0.001): 107 ± 12.2^2 mg/dL
Fasting Plasma Glucose Levels ([3]; 200 mg/kg oral, treatment day 17, less than oral Control, p < 0.001): 104 ± 24.8^2 mg/dL
